Earlier results, collected in patent publication USRE39151E1, “Process for the preparation and purification of thiol-containing maytansinoids” (Immunogen, Inc., priority 2000, dated 2006).

Tests used:
[1] = test system: human acute lymphoblastic leukemia line C.E.M.
[2] = test system: L1210 murine leukemic cell suspensions; details: in vitro, L1210 cell suspension
[3] = test system: Lewis lung carcinoma system
[4] = test system: LY5178 murine leukemic cell suspensions; details: in vitro, LY5178 cell suspension
L1210 cells = L1210 cells treated in vivo; untreated control mitotic index 3.2 to 5.8%
[5] = test system: B-16 melanocarcinoma system
[6] = test system: P388 lymphocytic leukemia system; details: in vivo
[7] = versus methotrexate, daunorubicin, and vincristine
tubulin = details: sea urchin eggs and clam eggs
[8] = test system: P388 murine leukemic cell suspensions; details: in vitro, P388 cell suspension
[9] = test system: human nasopharyngeal carcinoma cells
[10] = patients
[11] = test system: L1210 mouse leukemia system

COc1cc2cc(c1Cl)N(C)C(=O)C[C@H](OC(=O)[C@H](C)N(C)C(C)=O)[C@]1(C)O[C@H]1[C@H](C)[C@@H]1C[C@@](O)(NC(=O)O1)[C@H](OC)/C=C/C=C(\C)C2 [maytansine]
inhibitory concentration [1]: ≥ 10^−7 microgram/ml | inhibitory dose [2]: 10^−3 to 10^−1 microgram/mL | inhibitory activity in vivo [3]: significant inhibitory activity | inhibitory dose [4]: 10^−3 to 10^−1 microgram/mL | cells accumulating in mitosis (L1210 cells): 67% | inhibitory activity in vivo [5]: significant inhibitory activity | dosage range over which tumor growth was inhibited [6]: 50- to 100 fold | fold more cytotoxic than conventional cancer chemotherapeutic agents [7]: 100 to 1000 fold | effect on mitosis / microtubule formation (tubulin): inhibits mitosis by interfering with the formation of microtubules | inhibitory dose [8]: 10^−3 to 10^−1 microgram/mL | inhibition of in vitro growth [9]: active inhibitor | adverse effects in clinical trials [10]: associated with peripheral neuropathy that might be cumulative | outcome of clinical trials [10]: not favorable due to a number of side effects | inhibitory activity in vivo [11]: significant inhibitory activity
